Test results from patent publication US20070010438A1, “Tumor treatment using beta-sheet peptides and radiotherapy” (priority 2005, published 2007).

Columns and labels:
[1] = tested on: endothelial cell (FBHEC, HUVEC)
Method: β-sheet peptides βpep 1-24 were tested in an endothelial cell proliferation assay using ^3H-thymidine incorporation.

EC = EC proliferation, 3[H]thymidine incorporation assay (Table 3); assay type: cell-based, human
Method: EC proliferation was measured using a ^3[H]thymidine incorporation assay. EC were seeded in flatbottomed 96-well tissue culture plates (5000 cells/well) and grown for 3 days, in culture medium. In some cultures the proliferation of EC was enhanced by incubation with 10 ng/ml bFGF. During the last 6 hours of the assay, the culture was pulsed with 0.5 μCi [methyl-3 H]thymidine/well. Results are expressed as the arithmetic mean counts per minute (cpm) of triplicate cultures.

[2] = tested on: intercellular adhesion molecule-1 (ICAM-1); experiment: ICAM-1 expression on bFGF-treated EC (flow cytometry, Northern blot); assay type: cell-based, human; settings: for bFGF mediated downregulation of ICAM-1: 100 μg/ml added simultaneously with 10 ng/ml bFGF, 3 days
Method: In a first series of experiments, PF4 and βpep peptides were tested for their ability to prevent bFGF (fibroblast growth factor) mediated downregulation of ICAM-1. […] Simultaneously 100 μg/ml of each PF4, βpep-14, βpep-16, or medium was added. Mean ICAM-1 fluorescence intensity values were determined.
Since the in vivo situation of tumor-associated EC involves the low expression or even absence of ICAM-1, the next set of experiments aimed to study the ability to re-induce ICAM-1 expression after bFBF preincubation. […] In these experiments, HUVEC were pretreated for 3 days with bFGF, subsequently PF4 was added for 3 days and, where indicated in the last 16 hours of culture 4 ng/ml TNF(X was added. Human umbilical vein derived endothelial cells (HUVEC) were harvested from normal human umbilical cords by perfusion with 0.125% trypsin/EDTA. Cells were cultured in fibronectin (FN) coated tissue culture flasks in culture medium (RPMI-1640 with 20% human serum (HS), supplemented with 2 mM glutamine and 100 U/ml penicillin and 0.1 mg/ml streptomycin). Immunofluorescence using indirect PE-conjugated reagents required three separate incubations. 1×10^5 EC were fixed for 1 hour in 1% paraformaldehyde, resuspended in 20 μl appropriately diluted Mab and incubated for 1 hour on ice. Subsequently, cells were washed two times in PBS/BSA (0.1%) and incubated for another 30 minutes with biotinylated rabbit-anti-mouse Ig (Dako, Glostrup, Denmark). After another 2 washings, cells were incubated with streptavidin-phycoerythrin conjugate (Dako). Stained cells were analyzed on a FACScan flowcytometer. Data analysis was performed using PCLysys software (Becton Dickinson, Mountain View, Calif.). Statistical significance of observed differences was determined using the Student's t-test.
The anergy of EC to stimulation with inflammatory cytokines was the subject of additional experiments. For these experiments, HUVEC (human vascular endothelial cells) were pretreated with 10 ng/ml bFGF for 3 days. Subsequently, cells are subcultured for 3 days with […] in the presence of PF4. For the last 16 hours of the culture 4 ng/ml TNF-α was added to induce upregulation of ICAM-1. […] The regulation of ICAM-1 at the protein level was confirmed in Northern blot analysis for detection of ICAM-1 message. In these experiments, HUVEC were cultured for 3 days with bFGF and treated for the last 4 and 24 hours with PF4 (100 μg/ml). TNF-α was added 2 hours before isolation of RNA. RNA from a subconfluent EC cultures (75 cm^2 Petri-dishes) incubated with bFGF for different time-points was isolated using an RNA-zol kit (Campro Scientific, Houston, Tex.). Total RNA (10 μg) for each sample was separated in a 0.8% formaldehyde-denaturing gel, transferred to nitrocellulose (Hybond N+, Amersham International, Amersham, UK) and hybridized to a ^32P-labelled 1.9 Kb c-DNA probe, containing the functional sequence of the human ICAM-1 gene (a gift from Dr. B. Seed). Membranes were washed at a high stringency in 0.2×SSC, 0.1% SDS at 50° C. for 1 hour. Filters were exposed to X-ray films (Kodak X-omat, Eastman Kodak Company, Rochester, N.Y.) using an intensifying screen at −80° C. for not less than 12 hours. Autoradiograms were subjected to scanning using a laser densitometer (Model GS670, Bio-Rad, Hercules, Calif.) and data were analysed with the Molecular Analyst PCTM software. The intensity of the major ICAM-1 mRNA transcript was normalized with respect to actin mRNA expression used as a control.

HUVEC = settings: PF4 100 μg/ml, bFGF 10 ng/ml
Method: Functional impact for the observed phenomena was provided by leukocyte/EC adhesion assays as described earlier (Griffloen et al. Cancer Res. 56, 1111-1117 (1996)). […] PHA-activated peripheral blood T lymphocyte were adhered for 1 hour at 37° C. to TNF-α (4 ng/ml), bFGF (10 ng/ml) and PF4 (100 μg/ml) treated, or control (HUVEC). Non-adhering cells were removed and adhered cells were enumerated by an inverted microscope. Values of one representative experiment out of three are expressed as numbers of adhered cells per high power field. Statistical significance is determined by the Student's t-test.

SCK tumors = experiment: Radiosensitization test of SCK tumors, i.p. injections plus 10 Gy on days 0 and 1
Method: On days 0 and 1 the injections were given 2 hours prior to tumor irradiation (10 Gy each day) (Mauceri et al., Nature 394, 287-91 (1998)).
Tumor volume was determined by measuring the diameters of the tumor using metric-scale calipers (Scienceware; Pequannock, N.J.) and solving the equation to determine the volume of a spheroid: (a^2×b×Π)/6, where ‘a’ is the width and ‘b’ is the length of the tumor.
Growth delay was calculated by subtracting the average time for control tumors to grow three-fold in volume from the time required for treated tumors to increase in volume by 3-fold from the day of radiation.

[3] = first expt 2, 1 μg/ml, 10 ng/ml bFGF, medium 29079 ± 2506
[4] = first expt 2, 1 μg/ml, no bFGF, medium 14296 ± 2490
[5] = first expt 2, 10 μg/ml, 10 ng/ml bFGF, medium 29079 ± 2506
[6] = first expt 2, 10 μg/ml, no bFGF, medium 14296 ± 2490
[7] = first expt 2, 100 μg/ml, 10 ng/ml bFGF, medium 29079 ± 2506
[8] = first expt 2, 100 μg/ml, no bFGF, medium 14296 ± 2490
[9] = second expt 2, 1 μg/ml, 10 ng/ml bFGF, medium 52808 ± 4092
[10] = second expt 2, 1 μg/ml, no bFGF, medium 6780 ± 713
[11] = second expt 2, 10 μg/ml, 10 ng/ml bFGF, medium 52808 ± 4092
[12] = second expt 2, 10 μg/ml, no bFGF, medium 6780 ± 713
[13] = second expt 2, 100 μg/ml, 10 ng/ml bFGF, medium 52808 ± 4092
[14] = second expt 2, 100 μg/ml, no bFGF, medium 6780 ± 713

## ANIKLSVEMKLFKRHLKWKIIVKLNDGRELSLD [βpep-8]
[1]
  cell proliferation activity (control of endothelial cell proliferation): little cell proliferation activity

## SIQDLNVSMKLFRKQAKWKLIVKLNDGRELSLD [βpep-14]
EC
  angiostatic as determined by EC proliferation in vitro: angiostatic
EC; [3]
  EC proliferation, (3H)-thymidine incorporation: 28695 ± 1062 cpm
EC; [4]
  EC proliferation, (3H)-thymidine incorporation: 14184 ± 1775 cpm
EC; [5]
  EC proliferation, (3H)-thymidine incorporation: 29530 ± 1608 cpm
EC; [6]
  EC proliferation, (3H)-thymidine incorporation: 9886 ± 2114 cpm
EC; [7]
  EC proliferation, (3H)-thymidine incorporation: 6585 ± 132 cpm
EC; [8]
  EC proliferation, (3H)-thymidine incorporation: 3774 ± 299 cpm
EC; [9]
  EC proliferation, (3H)-thymidine incorporation: 48443 ± 2700 cpm
EC; [10]
  EC proliferation, (3H)-thymidine incorporation: 7214 ± 1668 cpm
EC; [11]
  EC proliferation, (3H)-thymidine incorporation: 52126 ± 1258 cpm
EC; [12]
  EC proliferation, (3H)-thymidine incorporation: 6074 ± 899 cpm
EC; [13]
  EC proliferation, (3H)-thymidine incorporation: 7663 ± 715 cpm
EC; [14]
  EC proliferation, (3H)-thymidine incorporation: 1062 ± 325 cpm
[2]
  bFGF mediated downregulation of ICAM-1: complete block of bFGF-mediated downregulation

## O=C1CCC(N2C(=O)c3ccccc3C2=O)C(=O)N1 (stereo not shown) [thalidomide, reference compound]
EC
  EC growth in vitro: do not affect EC growth in vitro
[2]
  effect on ICAM-1 expression, other inhibitors of angiogenesis: did not affect ICAM-1 expression

## SIQDLNVSMKLFRKQAKWKIIAKLNDGRELSLD [βpep-16]
EC
  angiostatic as determined by EC proliferation in vitro: angiostatic
EC; [3]
  EC proliferation, (3H)-thymidine incorporation: 35447 ± 2621 cpm
EC; [4]
  EC proliferation, (3H)-thymidine incorporation: 15039 ± 2020 cpm
EC; [5]
  EC proliferation, (3H)-thymidine incorporation: 33663 ± 2572 cpm
EC; [6]
  EC proliferation, (3H)-thymidine incorporation: 11881 ± 2545 cpm
EC; [7]
  EC proliferation, (3H)-thymidine incorporation: 7852 ± 875 cpm
EC; [8]
  EC proliferation, (3H)-thymidine incorporation: 4929 ± 749 cpm
EC; [9]
  EC proliferation, (3H)-thymidine incorporation: 47727 ± 447 cpm
EC; [10]
  EC proliferation, (3H)-thymidine incorporation: 7450 ± 737 cpm
EC; [11]
  EC proliferation, (3H)-thymidine incorporation: 44919 ± 2081 cpm
EC; [12]
  EC proliferation, (3H)-thymidine incorporation: 6148 ± 1370 cpm
EC; [13]
  EC proliferation, (3H)-thymidine incorporation: 27071 ± 3277 cpm
EC; [14]
  EC proliferation, (3H)-thymidine incorporation: 2669 ± 370 cpm
[2]
  bFGF mediated downregulation of ICAM-1: complete block of bFGF-mediated downregulation

## Platelet Factor 4 [PF4]
EC; expt 1, 1 μg/ml, 10 ng/ml bFGF, medium 28815 ± 1007
  EC proliferation, (3H)-thymidine incorporation: 28782 ± 815 cpm
EC; expt 1, 1 μg/ml, no bFGF, medium 4044 ± 206
  EC proliferation, (3H)-thymidine incorporation: 4656 ± 456 cpm
EC; expt 1, 10 μg/ml, 10 ng/ml bFGF, medium 28815 ± 1007
  EC proliferation, (3H)-thymidine incorporation: 23868 ± 402 cpm
EC; expt 1, 10 μg/ml, no bFGF, medium 4044 ± 206
  EC proliferation, (3H)-thymidine incorporation: 4066 ± 351 cpm
EC; expt 1, 100 μg/ml, 10 ng/ml bFGF, medium 28815 ± 1007
  EC proliferation, (3H)-thymidine incorporation: 4655 ± 421 cpm
EC; expt 1, 100 μg/ml, no bFGF, medium 4044 ± 206
  EC proliferation, (3H)-thymidine incorporation: 1651 ± 172 cpm
EC; [9]
  EC proliferation, (3H)-thymidine incorporation: 43524 ± 5318 cpm
EC; [10]
  EC proliferation, (3H)-thymidine incorporation: 6171 ± 1227 cpm
EC; [11]
  EC proliferation, (3H)-thymidine incorporation: 8337 ± 704 cpm
EC; [12]
  EC proliferation, (3H)-thymidine incorporation: 3547 ± 317 cpm
EC; [13]
  EC proliferation, (3H)-thymidine incorporation: 1654 ± 375 cpm
EC; [14]
  EC proliferation, (3H)-thymidine incorporation: 947 ± 170 cpm
[2]
  bFGF mediated downregulation of ICAM-1: did not result in the loss of ICAM-1 expression
[2]; 100 μg/ml alone
  expression of ICAM-1: enhanced the expression of ICAM-1
[2]; HUVEC pretreated 3 days with bFGF, then 100 μg/ml for 3 days in the presence of bFGF
  re-induction of ICAM-1 expression after bFGF preincubation: reinduction of ICAM-1
[2]; bFGF-pretreated HUVEC, 4 ng/ml TNF-α for the last 16 hours
  decreased inflammatory response (TNF-α induced ICAM-1) of angiogenic stimulated EC: overcome
HUVEC
  bFGF mediated inhibition of leukocyte adhesion to cultured HUVEC: completely abolished

## SIQFLKVSLNLDRKQAKWKIIVKLNDGRELSLD [βpep-24]
[1]
  cell proliferation activity (control of endothelial cell proliferation): very good at controlling cell proliferation

## thrombospondin-1 [TSP-1]
EC; expt 4, 10 μg/ml, 10 ng/ml bFGF, medium 31954 ± 1220
  EC proliferation, (3H)-thymidine incorporation: 22338 ± 860 cpm
EC; expt 4, 10 μg/ml, no bFGF, medium 18904 ± 1501
  EC proliferation, (3H)-thymidine incorporation: 8865 ± 639 cpm
EC; expt 4, 25 μg/ml, 10 ng/ml bFGF, medium 31954 ± 1220
  EC proliferation, (3H)-thymidine incorporation: 10267 ± 797 cpm
EC; expt 4, 25 μg/ml, no bFGF, medium 18904 ± 1501
  EC proliferation, (3H)-thymidine incorporation: 5565 ± 349 cpm
[2]
  effect on ICAM-1 expression, other inhibitors of angiogenesis: the same results

## angiostatin
SCK tumors; angiostatin 25 or 50 mg/kg i.p. combined with 10 Gy days 0 and 1
  complete responses: nor did it induce any complete responses
SCK tumors; angiostatin 25 or 50 mg/kg i.p. days -1, 0, 1 combined with 10 Gy days 0 and 1
  delay in tumor growth: did not result in any significant delay in tumor growth

## interferon-γ inducible protein-10 [IP-10]
EC; expt 3, 100 μg/ml, 10 ng/ml bFGF, medium 3432 ± 232
  EC proliferation, (3H)-thymidine incorporation: 725 ± 95 cpm
[2]
  effect on ICAM-1 expression, other inhibitors of angiogenesis: the same results
